{"source": "the NIST ThermoML archive (doi:10.1021/je7005067)", "conditions": "Liquid", "note": "± gives the expanded uncertainty stated by the source.", "data": [{"molecule": "CCCCC(CC)COC(=O)c1ccccc1C(=O)OCC(CC)CCCC", "note": "(configuration not stated) [bis(2-ethylhexyl) 1,2-benzenedicarboxylate]", "values": [{"measurement": "vapor or sublimation pressure", "setting": "423.15 K", "result": "0.008 ± 0.0023", "unit": "kPa"}, {"measurement": "vapor or sublimation pressure", "setting": "433.15 K", "result": "0.017 ± 0.0031", "unit": "kPa"}, {"measurement": "vapor or sublimation pressure", "setting": "443.15 K", "result": "0.0326 ± 0.0051", "unit": "kPa"}, {"measurement": "vapor or sublimation pressure", "setting": "448.15 K", "result": "0.0419 ± 0.0065", "unit": "kPa"}, {"measurement": "vapor or sublimation pressure", "setting": "453.15 K", "result": "0.0655 ± 0.01", "unit": "kPa"}, {"measurement": "vapor or sublimation pressure", "setting": "463.15 K", "result": "0.1154 ± 0.018", "unit": "kPa"}, {"measurement": "vapor or sublimation pressure", "setting": "473.15 K", "result": "0.1874 ± 0.029", "unit": "kPa"}]}]}
